Results from US5460697A, “Method of pulping wood chips with a fungi using sulfite salt-treated wood chips” (priority 1994, dated 1995).
“Also recorded” adds a separate entry of the source.

What was measured:
[1] = Effluent toxicity (Microtox); conditions: for Toxicity Units (100/EC50): 1300 μg/ml BiS
From the text: Evaluating biopulp effluents is an important factor in assessing the feasibility of this new pulping process. […] Because the composition of biopulp effluent is unknown, we selected a general toxicity test method, Microtox, as an appropriate method for the evaluation. Microtox analysis has been used satisfactorily as a rapid screening method for evaluating toxicity of pulp mill effluents Firth, B. and Backman, C. Tappi J., 75[12]169; 1991.
For each run, approximately 1.5-1.6 kg wood chips (oven dry weight basis) of each treatment from 4-week incubation samples, were fiberized in an atmospheric refiner and the pulp slurry was collected in 20-gallon plastic containers. The flow rate during refining operation was approximately 50 kg 90° C. water per kg chips (oven dry weight basis). A representative 5-gallon sample was taken from each slurry and filtered on a Buchner funnel to separate pulp from effluent (filtrate). Filtrates were cooled to 4° C. and pH was recorded. Chilled effluent samples were submitted for Microtox testing at National Council for Air and Stream Improvement according to standard Microtox procedures.

[2] = tested on: indigenous microorganisms; assay: Contaminants level of sodium bisulfite-soaked aspen chips (plating before inoculation and at harvest); type: cell-based, endogenous microorganisms of aspen wood chips; conditions: for contaminants level at harvest (in words): fungus-treated chips with sodium bisulfite
Experimental: (§1) Three batches of aspen wood chips were prepared, each batch containing 1800 g dry weight of chips. One batch was soaked in 18 kg of water containing no sodium bisulfite. A second batch was soaked in 18 kg of water containing 28.125 g of sodium bisulfite. A third batch was soaked in 18 kg of water containing 56.250 g of sodium bisulfite. After the chips had soaked, we performed our experiments on 1600 g of chips (dry weight basis). The soaking was done at room temperature for about 1 hour. After soaking, water or sodium bisulfite solution was drained through a mesh. Based on the amount of water or sodium bisulfite solution absorbed by the chips, we calculated that 1600 g dry weight of chips retained about 600 or 1200 μg/ml of sodium bisulfite. Thus, there were three treatments: 1) chips without sodium bisulfite (water only), 2) chips containing 600 μg/ml of sodium bisulfite, and 3) chips containing 1200 μg/ml of sodium bisulfite.
Bioreactors containing soaked chips were left at room temperature for 48 h. U.S. Pat. No. 5,055,159 describes a suitable bioreactor. (U.S. Pat. No. 5,055,159 is hereby incorporated by reference.) Prior to inoculation, chips were pulled out from these bioreactors and plated on potato dextrose and tryptic soya agar plates to measure the contaminants level. These plates were incubated at 27° C. and 65% relative humidity for 24 h.
At harvest, fungus-treated chips with and without sodium bisulfite soaking were plated on potato dextrose and tryptic soya agar plates to determine the contaminants level. These plates were incubated at 27° C. and 65% relative humidity for 72 h. […] High level of sodium bisulfite (1200 μg/ml) caused only 1.7% wood loss, saved 18.4% of electrical energy, improved tear index by 15%, and fiber length by 26% as compared to the control.
We repeated the experiment described above with a four-week incubation. Four batches of aspen wood chips were prepared, each batch containing 3600 g dry weight of chips. One batch was soaked in 36 kg of water containing no sodium bisulfite. Second, third and fourth batches each were soaked in 36 kg of water containing 112.50 g of sodium bisulfite at room temperature for about 1 hour. After soaking, water or sodium bisulfite solution was drained through a mesh. Based on the amount of water or sodium bisulfite solution soaked, we calculated that each batch of 1600 g dry weight of chips retained about 1300 μg/ml of sodium bisulfite. Bioreactors containing soaked chips were left at room temperature for 48 h. The following eight treatments were made:
Prior to inoculation, chips were pulled out from the bioreactors and plated on potato dextrose and tryptic soya agar plates to determine the contaminants level. These plates were incubated at 27° C. and 65% relative humidity for 24 h. […]

C. subvermispora = assay: Growth of C. subvermispora on sodium bisulfite-treated chips; type: cell-based; conditions: for growth of C. subvermispora at harvest (in words): fungus-treated chips with sodium bisulfite
Experimental: To prepare a liquid inoculum of C. subvermispora, potato dextrose broth (43.20 g) and yeast extract (13.08 g) were added to 1800 ml of distilled water and mixed well. 300 ml of this medium was poured into six 2800-ml flasks. Each flask was autoclaved for 20 min. at 121° C. After cooling to room temperature, each flask was inoculated with 30 plugs cut into 13-mm diameter plugs from a 10-day old fungal culture on a potato dextrose agar plate. The flasks were then incubated at 27° C. at 65% relative humidity for 10-15 days. Prior to use, the flasks containing the fungal biomass were decanted and washed with sterile distilled water to remove excess medium from the fungus. The fungal biomass was then placed in distilled water and blended in a Waring blender (VWR scientific) twice for 15 seconds each time at high speed, following which distilled water was added to the suspension to make the total volume 500 ml. About 100 grams of this suspension (2.61 g dry weight) was added to each bioreactor containing about 1600 grams of aspen chips measured on a dry weight basis prepared as described below. The blended mycelium was dumped onto the chips and mixed.
as §1, with “After soaking, water or sodium bisulfite solution was drained through a mesh.” left out, “Thus, there were three treatments: 1) chips without sodium bisulfite (water only), 2) chips containing 600 μg/ml of sodium bisulfite, and 3) chips containing 1200 μg/ml of sodium bisulfite.” left out
We repeated the experiment described above with a four-week incubation. […] Based on the amount of water or sodium bisulfite solution soaked, we calculated that each batch of 1600 g dry weight of chips retained about 1300 μg/ml of sodium bisulfite. […]

O=S([O-])O.[Na+] [Sodium Bisulfite]
Toxicity Units (100/EC50) ([1]; Control 2: not A/C, no fungus): 15.4 Toxicity Units
Toxicity Units (100/EC50) ([1]; Control 4: A/C, no fungus): 16.1 Toxicity Units
Toxicity Units (100/EC50) ([1]; Treatment 2: not A/C, with fungus, 4-week incubation): 4.2 Toxicity Units
Toxicity Units (100/EC50) ([1]; Treatment 4: A/C, with fungus, 4-week incubation): 6.2 Toxicity Units
toxicity (in words) ([1]; at least 2-2.5 kg/ton of wood chips, unsterilized, vs control chips): less toxicity than from control chips
effluent toxicity (in words) ([1]; biopulp, treatment 2): least toxic effluent from biopulp
effluent toxicity (in words) ([1]; controls without fungus (control 2, control 4)): high effluent toxicity; also recorded: increased effluent toxicity of the non-autoclaved control chips
endogenous microorganisms on chips (in words) ([2]; 1200 μg/ml, prior to inoculation, 48 h after soaking, 2-week experiment): no endogenous microorganisms
inhibition of microorganisms prior to inoculation (in words) ([2]; 1300 μg/ml, 4-week experiment): completely inhibited microorganisms
contaminants level at harvest (in words) ([2]; 2 weeks): almost no contamination
contaminants level at harvest (in words) ([2]; 4 weeks): almost no contamination
growth of C. subvermispora at harvest (in words) (C. subvermispora; 2 weeks): heavy growth of C. subvermispora
growth of C. subvermispora at harvest (in words) (C. subvermispora; 4 weeks): heavy growth of C. subvermispora
growth of white-rot fungi such as C. subvermispora (in words) (C. subvermispora; treatment of wood chips, summary): promoted the growth of white-rot fungi
